Reference: publication PMC3274548, “Toward New Therapeutics for Skin and Soft Tissue Infections: Propargyl-Linked Antifolates Are Potent Inhibitors of MRSA and Streptococcus pyogenes” (PLoS ONE, 2012)
Converted amounts (≈) assume the structure as drawn. Like-named read-outs stand apart in the source and are kept apart here.

What was measured:
S. aureus DHFR = biological target: T1, S. aureus DHFR (Staphylococcus aureus, UniProt P0A017); assay: biochemical; format: biochemical
T1 construct: the DHFR gene was inserted into vector pET41 with a His8 tag for purification; His8; made in house; host or cells: E. coli BL21 (DE3)
Experimental: (§1) S. aureus DHFR was cloned, expressed and purified as previously described. Briefly, the DHFR gene was inserted into vector pET41 with a His8 tag for purification. The protein was expressed in E. coli BL21 (DE3) cells. […] The protein was concentrated to ∼5 mg/mL. S. pyogenes DHFR was cloned using PCR from genomic DNA and inserted in vector pET-41.
(§2) Enzyme inhibition assays were performed by monitoring the rate of NADPH oxidation by the DHFR enzyme at an absorbance of 340 nm over five minutes. Assays were performed in the presence of saturating concentrations of NADPH (100 µM) and initiated with dihydrofolate (1 mM). All assays were completed at 25°C in a buffer containing 20 mM TES pH 7.0, 50 mM KCl, 10 mM 2-mercaptoethanol, 0.5 mM EDTA and 1 mg/mL BSA. Inhibition was measured at least three times with inhibitor concentrations near the IC50 value and the average IC50 value is reported with a standard deviation.

S. pyogenes DHFR = S. pyogenes DHFR (Streptococcus pyogenes, UniProt Q9A091); assay: biochemical; format: biochemical; conditions: IC50 (human)/IC50 (pathogen)
Experimental: as §1, §2

Human DHFR = biological target: T2, Human DHFR (Homo sapiens, UniProt P00374); assay: DHFR enzyme inhibition assay (NADPH oxidation, 340 nm); format: biochemical
T2 sequence (P00374 1-187): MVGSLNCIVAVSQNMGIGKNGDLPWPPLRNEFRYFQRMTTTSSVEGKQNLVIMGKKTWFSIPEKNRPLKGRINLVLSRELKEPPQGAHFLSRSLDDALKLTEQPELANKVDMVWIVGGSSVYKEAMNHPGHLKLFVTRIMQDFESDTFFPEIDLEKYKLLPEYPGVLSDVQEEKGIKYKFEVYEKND
Experimental: as §2

MRSA (S.aureus 13709) = assay: MIC, broth microdilution with Alamar Blue; format: cell-based, Staphylococcus aureus; conditions: for Selectivity MRSA: IC50 (MCF10)/MIC (pathogen), both values in µM; for MIC: Staphylococcus aureus, MRSA
Experimental: (§3) Stock solutions of standard antibiotics and test compounds were made at 50 mM in DMSO. […] For susceptibility testing, 10 µL of glycerol stock was suspended in a 10 mL shake flask culture of chemically defined Isosensitest broth (Oxoid) supplemented with 2% w/v glucose. A sample of the shake flask culture was diluted to 1×10^6 cells/mL in media and added to 96-well test plates (100 µL per well) containing test compounds dispensed in DMSO (2 µL) using serial two-fold dilutions. After an incubation period (30°C) determined from the strain specific doubling time, a 0.03% w/v aqueous solution of resazurin (10 µL) was added and the plates were allowed to incubate; each well was then scored for dye reduction.

Streptococcus pyogenes = assay: MIC, broth microdilution with Alamar Blue; format: cell-based; conditions: for Selectivity S. pyogenes: IC50 (MCF10)/MIC (pathogen), both values in µM; for MIC: Streptococcus pyogenes
Experimental: as §3

MCF-10 cells = assay: Mammalian cell toxicity (Alamar Blue); format: cell-based; conditions: Homo sapiens, MCF10; cytotoxicity, 4 h incubation; read-out: IC50 MCF-10
Experimental: Adherent cell lines were maintained in Eagle's Minimal Essential Media (Sigma-Aldrich, St. Louis, MO, USA) with 2 mM glutamine and Earle's Balanced Salt Solution (HyClone, Logan, UT, USA) adjusted to contain 1.5 g/L sodium bicarbonate, 0.1 mM non-essential amino acids, 1 mM sodium pyruvate and 10% fetal calf serum. Fetal calf serum used in these assays was lot matched throughout. […] Toxicity assays were conducted between passages 10–20. Target compound toxicity was measured by incubating the test compound with the cells for 4 h, washing the cells and finally treating the cells with Alamar Blue. After 12–24 h, the fluorescence of the reduced dye was measured. Fluorescence intensity as a function of test compound concentration was fit to the Fermi equation, using non-linear least squares regression analysis, to estimate IC50 values.

HepG2 cells = assay: Mammalian cell toxicity (Alamar Blue); format: cell-based; conditions: Homo sapiens, cytotoxicity, 4 h incubation
Experimental: Fetal calf serum used in these assays was lot matched throughout. All cultures were maintained under a humidified 5% CO2 atmosphere at 37°C, had media refreshed twice weekly and were subcultured by trypsinization and resuspension at a ratio of 1∶5 each week. Toxicity assays were conducted between passages 10–20. Target compound toxicity was measured by incubating the test compound with the cells for 4 h, washing the cells and finally treating the cells with Alamar Blue. After 12–24 h, the fluorescence of the reduced dye was measured. Fluorescence intensity as a function of test compound concentration was fit to the Fermi equation, using non-linear least squares regression analysis, to estimate IC50 values.

[1] = system: TMP-SMZ-resistant MRSA strain; assay: MIC against clinical isolates of MRSA; format: cell-based; conditions: Staphylococcus aureus, read-out: MIC TMP-SMZ^R
USA300 CA-MRSA = assay: MIC against clinical isolates of MRSA; format: cell-based, Staphylococcus aureus
USA100 HA-MRSA = assay: MIC against clinical isolates of MRSA; format: cell-based; conditions: Staphylococcus aureus
HA-MRSA = assay: MIC against clinical isolates of MRSA; format: cell-based; conditions: Staphylococcus aureus, read-out: MIC HA-MRSA
hVISA Mu3 = assay: MIC against clinical isolates of MRSA; format: cell-based; conditions: Staphylococcus aureus, read-out: MIC hVISA Mu3
VISA Mu50 = assay: MIC against clinical isolates of MRSA; format: cell-based; conditions: Staphylococcus aureus, read-out: MIC VISA Mu50
[2] = S. aureus DHFR, average of at least three measurements, read-out: IC50 (nM) Sa
[3] = human DHFR, average of at least three measurements, read-out: IC50 (nM) Human
[4] = 10% fetal calf serum, read-out: MIC MRSA +FCS
[5] = 10% fetal calf serum, value in parentheses, read-out: MIC MRSA +FCS
[6] = value in parentheses, read-out: MIC MRSA
[7] = 10% FCS, read-out: MIC S. pyogenes +FCS
[8] = 10% FCS, value in parentheses, read-out: MIC S. pyogenes +FCS
[9] = value in parentheses, read-out: MIC S. pyogenes

S. pyogenes DHFR, sequence (Q9A091 entry or part of it): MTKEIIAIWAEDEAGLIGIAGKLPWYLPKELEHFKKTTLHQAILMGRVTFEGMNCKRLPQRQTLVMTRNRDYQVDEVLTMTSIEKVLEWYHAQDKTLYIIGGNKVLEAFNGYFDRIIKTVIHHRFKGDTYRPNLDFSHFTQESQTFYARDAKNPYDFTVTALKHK
T1 sequence (P0A017 whole entry): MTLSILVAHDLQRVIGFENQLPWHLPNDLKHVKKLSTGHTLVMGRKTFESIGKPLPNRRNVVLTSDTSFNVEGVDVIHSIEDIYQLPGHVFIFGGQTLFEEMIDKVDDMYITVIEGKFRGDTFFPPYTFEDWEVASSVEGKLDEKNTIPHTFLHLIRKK

SMILES	IC50 (S. aureus DHFR; [2])	Selectivity (h/Sp) (S. pyogenes DHFR)	IC50 (Human DHFR; [3])	Selectivity MRSA (MRSA (S.aureus 13709))	MIC (MRSA (S.aureus 13709); [4])	MIC (MRSA (S.aureus 13709); [5])	MIC (MRSA (S.aureus 13709); [6])	MIC (MRSA (S.aureus 13709); read-out: MIC MRSA)	Selectivity S. pyogenes (Streptococcus pyogenes)	MIC (Streptococcus pyogenes; [7])	MIC (Streptococcus pyogenes; [8])	MIC (Streptococcus pyogenes; [9])	MIC (Streptococcus pyogenes; read-out: MIC S. pyogenes)	IC50 (MCF-10 cells)	IC50 (HepG2 cells)	Selectivity (h/Sa) (S. aureus DHFR; IC50 (human)/IC50 (pathogen))	also measured
COc1ccc(-c2ccccc2)cc1C(C)C#Cc1c(C)nc(N)nc1N (stereo not drawn) [Compound 10]	75 ± 4 nM	4	97 ± 10 nM	19	11.4 µg/mL	32 µM	2 µM	0.72 µg/mL	76	5.7 µg/mL	16 µM	0.5 µM	0.18 µg/mL	38000 nM	94000 nM		Selectivity (h/Sa) (S. aureus DHFR): 1.3
CCc1nc(N)nc(N)c1C#CC(C)c1cc(-c2ccccc2)ccc1OC (stereo not drawn) [Compound 11]	67 ± 5.5 nM	4	100 ± 10 nM	27	11.9 µg/mL	32 µM	2 µM	0.74 µg/mL	27	6 µg/mL	16 µM	2 µM	0.74 µg/mL	54000 nM	77000 nM	1.5	
COc1cc(C(C)C#Cc2c(C)nc(N)nc2N)cc(N2CCOCC2)c1 (stereo not drawn) [Compound 31]	29 ± 2 nM	15	400 ± 40 nM	116	2.94 µg/mL	8 µM	4 µM	1.5 µg/mL	58	2.94 µg/mL	8 µM	8 µM	2.94 µg/mL	462000 nM	494000 nM	14	
CCc1nc(N)nc(N)c1C#CCc1cccc(-c2cncnc2)c1 [Compound 37]		7		>1,000	0.16 µg/mL	0.5 µM	0.5 µM	0.16 µg/mL	>1,000	0.16 µg/mL	0.5 µM	0.5 µM	0.16 µg/mL	> 500000 nM		5	IC50 (S. aureus DHFR): 35 ± 1.1 nM; IC50 (Human DHFR): 160 ± 13 nM
CN[C@H](CC(C)C)C(=O)N[C@H]1C(=O)N[C@@H](CC(N)=O)C(=O)N[C@H]2C(=O)N[C@H]3C(=O)N[C@H](C(=O)N[C@H](C(=O)O)c4cc(O)cc(O)c4-c4cc3ccc4O)[C@H](O)c3ccc(c(Cl)c3)Oc3cc2cc(c3O[C@@H]2O[C@H](CO)[C@@H](O)[C@H](O)[C@H]2O[C@H]2C[C@](C)(N)[C@H](O)[C@H](C)O2)Oc2ccc(cc2Cl)[C@H]1O [Vancomycin, reference compound]																	MIC [1]: 2 µg/mL (≈ 1.38 µM); MIC (USA300 CA-MRSA; Staphylococcus aureus, read-out: MIC USA300 CA-MRSA): 1 µg/mL (≈ 0.69 µM); MIC USA300 CA-MRSA (USA300 CA-MRSA; clinical isolate, USA300): 1 µg/mL (≈ 0.69 µM); MIC (USA100 HA-MRSA; read-out: MIC USA100 HA-MRSA, clinical isolate, USA100): 1 µg/mL (≈ 0.69 µM); MIC (USA100 HA-MRSA; read-out: MIC USA100 HA-MRSA, clinical isolate, first USA100 column): 0.5 µg/mL (≈ 0.345 µM); MIC (USA100 HA-MRSA; read-out: MIC USA100 HA-MRSA, clinical isolate, third USA100 column): 1 µg/mL (≈ 0.69 µM); MIC (HA-MRSA): 1 µg/mL (≈ 0.69 µM); MIC (hVISA Mu3): 3 µg/mL (≈ 2.07 µM); MIC (VISA Mu50): 8 µg/mL (≈ 5.52 µM)
